Test results taken from patent publication US10294248B2, “Beta-lactamase inhibitors” (VenatoRx Pharmaceuticals, Inc., priority 2013, dated 2019).

How the values were obtained:
[1] = tested on: E. coli ESBL4 expressing CTX-M-15; assay: Broth microdilution MIC, E. coli ESBL4 CTX-M-15; assay type: cell-based; conditions: for MIC of example compound in presence of fixed β-lactam: Fixed CAZ, E. coli ESBL4 CTX-M-15: fixed 4 μg/mL ceftazidime, CAMHB, 16-20 hours at 37° C.
Excerpt: (§1) To determine the ability of test compounds to potentiate the inhibition of the growth of bacterial strains that produce beta-lactamase enzymes, classic cell based broth microdilution MIC assays were employed. Six bacteria strains producing beta-lactamase enzymes were used: E. coli expressing the Class A Extended Spectrum Beta-Lactamase (ESBL) CTX-M-15, E. cloacae expressing the Class C P99, K. pneumoniae expressing the Class A carbapenemase KPC-3, P. aeruginosa expressing the Class B carbapenemase VIM-2, K. pneumoniae expressing the class A carbapenemase KPC-2 and the class B carbapenemase VIM-4, and S. aureus producing the Class A penicillinase PC-1. The assay was conducted in Cation Adjusted Mueller Hinton Broth (CAMHB, BD #212322, BD Diagnostic Systems, Sparks, Md.). Bacteria strains were grown for 3-5 hours in CAMBH broth. Test compounds (Examples 1-30) were added to a microtiter plate in 2-fold serial dilutions in CAMHB in a final concentration range of 32 μg/mL to 0.25 μg/ml. An overlay of CAMHB containing a Beta-lactam was added to the compounds at a final static concentration of 4 μg/ml. […] In addition to the titration of test compounds the MICs of a panel of control beta-lactams is also tested to ensure the strains are behaving consistently from test to test. Once the test compound and antibiotics are added the plates can be inoculated according to CLSI broth microdilution method. After inoculation the plates are incubated for 16-20 hours at 37° C. then the Minimal Inhibitory Concentration (MIC) of the test compound is determined visually.
(§2) Using the methodology described above, examples of the current invention were evaluated for their ability to inhibit the growth of β-lactamase-producing bacteria in the presence of a β-lactam antibiotic.
(§3) Using the methodology described above in EXAMPLE III, exemplary compounds for Formula I or Formula Ia were evaluated for their ability to inhibit the growth of β-lactamase producing bacteria in the presence of a β-lactam antibiotic.

[2] = tested on: E. cloacae 144200 expressing Class C P99 AmpC; assay: Broth microdilution MIC, E. cloacae 144200 p99 AmpC; assay type: cell-based; conditions: for MIC of example compound in presence of fixed β-lactam: Fixed CAZ, E. cl. 144200 p99 AmpC: fixed 4 μg/mL ceftazidime, CAMHB, 16-20 hours at 37° C.
Excerpt: as §1, §2, §3

[3] = target: T1, SHV-5 β-lactamase (Class A ESBL) (Klebsiella pneumoniae, UniProt P0A3M1); assay: β-Lactamase inhibition, SHV-5; assay type: biochemical
T1 construct: made in house; host or cells: E. coli BL21(DE3)
Description: (§4) For SHV-5, Kpc-2, p99AmpC and OXA-1 β-lactamases, E. coli BL21(DE3) bacterial cells carrying expression plasmids (expressed as native untagged proteins) for the individual β-lactamases were grown in 1 L of Superbroth (Teknova Inc. Hollister, Calif.) supplemented with 100 μg/ml kanamycin selection and 1×5052 (0.5% glycerol, 0.05% glucose and 0.2% α-lactose) at 35° C. for 18-20 hours. Cells were harvested by centrifugation (4,000×g, 4° C., 20 min), resuspended in 50 ml of 10 mM HEPES pH 7.5 ( 1/20 of the initial volume). The cells were lysed by sonication (5 pulses of 45 seconds) at 45 W on ice. The lysates were clarified by centrifugation at 10,000×g for 40 minutes at 4° C. Samples were diluted 5-fold in 50 mM sodium acetate pH 5.0, stored overnight at 4° C., after which they were centrifuged at 10,000×g for 30 minutes to clarify, and filtered through 0.45 μm filters. The samples were loaded onto a 5 ml Capto S sepharose cation exchange column (GE Healthcare) pre-equilibrated with 50 mM sodium acetate pH 5.0. The column was washed with 5 column volumes of 50 mM sodium acetate pH 5.0 to wash out unbound protein and a linear gradient of NaCl (0 to 500 mM) was used to elute the protein (over 16 CV) from the column. Fractions were assayed for β-lactamase activity using Centa (Calbiochem, Gibbstown, N.J.) or Nitrocefin (EMD Millipore chemicals, Darmstadt, Germany) as a reporter β-lactamase substrate for activity in the isolated fractions. Active fractions were pooled, concentrated and further purified by gel filtration chromatography on a Superdex 75 prep grade gel filtration column (GE Healthcare, Piscataway, N.J.) pre-equilibrated in 50 mM Hepes pH 7.5, 150 mM NaCl. Active fractions were pooled concentrated, quantitated by BCA protein determination (Thermo Scientific, Rockford, Ill.), dialyzed into PBS and frozen at −80° C. in 20% glycerol until use.
(§5) An equal volume of diluted enzyme stock was added, and the plates were incubated at 37° C. for 15 min. Nitrocefin was used as substrate for p99 AmpC, VIM-2 and OXA-1 and dispensed into each well at a final concentration of 100 μM. Absorbance at 486 nm was immediately monitored for 10 min using a Biotek Powerwave XS2 microplate spectrophotometer using the GEN5 software package (Biotek Instruments, Winooski Vt.). In an analogous fashion, imipenem was used as substrate for Kpc-2 and Cefotaxime was used for SHV-5, while changes in absorbance upon hydrolysis of the β-lactam ring were monitored at 300 nm and 260 nm respectively in UV-transparent 96-well microtiter assay plates. Maximum rates of hydrolysis were compared to those in control wells (without inhibitors), and percentages of enzyme inhibition were calculated for each concentration of inhibitor. The concentration of inhibitor needed to reduce the initial rate of hydrolysis of substrate by 50% (IC50) was calculated as the residual activity of β-lactamase at 486 nm using GraFit version 7 kinetics software package (Erithacus Software, Surrey, UK).
(§6) Using the methodology described above, examples of the current invention were evaluated for their ability to inhibit β-lactamase enzymes from all four Ambler classifications (A through D). […] NT=Not tested.

[4] = target: T2, KPC-2 β-lactamase (Class A carbapenemase) (Klebsiella pneumoniae, UniProt Q9F663); assay: β-Lactamase inhibition, KPC-2; assay type: biochemical; conditions: imipenem substrate, 300 nm; 15 min preincubation at 37° C., PBS pH 7.4
T2 construct: made in house; host or cells: E. coli BL21(DE3)
Description: as §4, §5, §6

[5] = target: T3, VIM-2 metallo-β-lactamase (Class B) (Pseudomonas aeruginosa, UniProt Q9K2N0); assay: β-Lactamase inhibition, VIM-2; assay type: biochemical; conditions: nitrocefin 100 μM, 486 nm; 15 min preincubation at 37° C., PBS pH 7.4
T3 construct: made in house; host or cells: E. coli BL21(DE3)
Description: For Vim-2 metallo β-lactamase, the procedure was identical with the following exceptions, first the protein was not pH adjusted to pH 5 with 50 mM sodium acetate, second, the chromatography step was changed to a 5 ml Q sepharose anion exchange column pre-equilibrated with 50 mM Hepes pH 7.5, and elution of the protein was achieved by a linear gradient of NaCl (0-600 mM). Finally, the VIM-2 purification required a second run (3rd step) on the Q sepharose anion exchange column to achieve acceptable purity (>90%).
as §5, §6

[6] = target: T4, p99 AmpC β-lactamase (Class C) (Enterobacter cloacae, UniProt P05364); assay: β-Lactamase inhibition, p99 AmpC; assay type: biochemical
T4 construct: made in house; host or cells: E. coli BL21(DE3)
Description: as §4, §5, §6

[7] = tested on: K. pneumoniae 156319 expressing KPC-3; assay: Broth microdilution MIC, K. pneumoniae 156319 KPC-3; assay type: cell-based; conditions: for MIC of example compound in presence of fixed β-lactam: Fixed Mero, K. P. 156319 KPC-3: fixed 4 μg/mL meropenem, CAMHB, 16-20 hours at 37° C.
Excerpt: as §1, §2, §3

[8] = tested on: P. aeruginosa Ps296 expressing VIM-2; assay: Broth microdilution MIC, P. aeruginosa Ps296 VIM-2; assay type: cell-based; conditions: for MIC of example compound in presence of fixed β-lactam: Fixed Mero, P. aerug. Ps296 VIM-2: fixed 4 μg/mL meropenem, CAMHB, 16-20 hours at 37° C.
Excerpt: as §1, §2, §3

[9] = tested on: K. pneumoniae A-1797 expressing KPC-2 and VIM-4; assay: Broth microdilution MIC, K. pneumoniae A-1797 KPC-2/VIM-4; assay type: cell-based; conditions: for MIC of example compound in presence of fixed β-lactam: Fixed Mero, K. P. A-1797 KPC-2 VIM-4: fixed 4 μg/mL meropenem, CAMHB, 16-20 hours at 37° C.
Excerpt: as §1, §2, §3

[10] = tested on: S. aureus MSSA-7 producing penicillinase PC-1; assay: Broth microdilution MIC, S. aureus MSSA-7 PC-1; assay type: cell-based; conditions: for MIC of example compound in presence of fixed β-lactam: Fixed Pip, S. aureus MSSA-7 PC-1: fixed 4 μg/mL piperacillin, CAMHB, 16-20 hours at 37° C.
Excerpt: as §1, §2, §3

T4 sequence (P05364 21-381): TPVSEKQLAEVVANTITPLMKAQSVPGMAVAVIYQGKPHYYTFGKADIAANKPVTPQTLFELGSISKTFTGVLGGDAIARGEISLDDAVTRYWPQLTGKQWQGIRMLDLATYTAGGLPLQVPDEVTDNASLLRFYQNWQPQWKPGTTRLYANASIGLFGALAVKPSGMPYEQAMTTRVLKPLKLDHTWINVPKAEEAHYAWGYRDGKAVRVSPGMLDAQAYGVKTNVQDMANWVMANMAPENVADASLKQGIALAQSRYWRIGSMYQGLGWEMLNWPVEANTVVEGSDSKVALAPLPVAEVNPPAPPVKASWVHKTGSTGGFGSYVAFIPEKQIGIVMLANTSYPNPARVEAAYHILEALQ
T1 sequence (P0A3M1 22-286): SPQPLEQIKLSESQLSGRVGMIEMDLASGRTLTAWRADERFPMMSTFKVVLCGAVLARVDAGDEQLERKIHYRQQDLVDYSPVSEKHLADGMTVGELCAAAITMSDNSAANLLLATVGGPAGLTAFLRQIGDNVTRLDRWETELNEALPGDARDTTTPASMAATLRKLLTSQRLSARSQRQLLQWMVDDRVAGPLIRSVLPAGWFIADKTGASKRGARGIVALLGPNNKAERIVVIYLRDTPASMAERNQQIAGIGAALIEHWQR
T2 sequence (Q9F663 25-293, looked up): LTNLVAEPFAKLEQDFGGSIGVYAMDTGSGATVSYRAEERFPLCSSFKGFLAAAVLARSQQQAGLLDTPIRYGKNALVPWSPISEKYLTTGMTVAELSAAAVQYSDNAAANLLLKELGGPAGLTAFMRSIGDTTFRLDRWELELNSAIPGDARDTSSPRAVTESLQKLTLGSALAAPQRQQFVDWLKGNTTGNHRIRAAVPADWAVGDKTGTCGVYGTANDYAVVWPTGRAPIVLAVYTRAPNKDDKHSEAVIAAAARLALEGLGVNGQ

SMILES | MIC ([1]; Escherichia coli, read-out: MIC alone, E. coli expressing CTX-M-15) [µg/mL] | MIC ([2]; Enterobacter cloacae, read-out: MIC alone, E. cloacae expressing Class C P99) [µg/mL] | IC50 [3] [nM] | IC50 [4] [nM] | IC50 [5] [nM] | IC50 [6] [nM] | MIC of example compound in presence of fixed β-lactam: Fixed CAZ, E. coli ESBL4 CTX-M-15 [1] | MIC of example compound in presence of fixed β-lactam: Fixed CAZ, E. cl. 144200 p99 AmpC [2] | MIC of example compound in presence of fixed β-lactam: Fixed Mero, K. P. 156319 KPC-3 [7] | MIC of example compound in presence of fixed β-lactam: Fixed Mero, P. aerug. Ps296 VIM-2 [8] | MIC of example compound in presence of fixed β-lactam: Fixed Mero, K. P. A-1797 KPC-2 VIM-4 [9] | MIC of example compound in presence of fixed β-lactam: Fixed Pip, S. aureus MSSA-7 PC-1 [10] | MIC ([7]; Klebsiella pneumoniae, read-out: MIC alone, K. pneumoniae expressing KPC-3) [µg/mL] | MIC ([8]; Pseudomonas aeruginosa, read-out: MIC alone, P. aeruginosa expressing VIM-2) [µg/mL] | MIC ([9]; Klebsiella pneumoniae, read-out: MIC alone, K. pneumoniae expressing KPC-2 and VIM-4) [µg/mL] | MIC ([10]; Staphylococcus aureus, MSSA, partner antibiotic alone, no β-lactamase inhibitor) [µg/mL]
CC(C)(O/N=C(\C(=O)N[C@@H]1C(=O)N2C(C(=O)[O-])=C(C[n+]3ccccc3)CS[C@H]12)c1csc(N)n1)C(=O)O [Ceftazidime, reference compound] | > 128 | 128 |  |  |  |  |  |  |  |  |  |  |  |  |  | 
N=C(N)N1CCC(CC(=O)N[C@H]2Cc3cccc(C(=O)O)c3OB2O)CC1 [Example 33, 3-[2-(1-Carbamimidoyl-piperidin-4-yl)-acetylamino]-2-hydroxy-3,4-dihydro-2H-benzo[e][1,2]oxaborinine-8-carboxylic acid] |  |  | < 100 | 100 to 1000 | 1000 to 10000 | < 100 | C (the MIC in the presence of <4 μg/mL of a β-lactamase inhibitor) | C (the MIC in the presence of <4 μg/mL of a β-lactamase inhibitor) | B (the MIC in the presence of between 8 and 32 μg/mL of a β-lactamase inhibitor) | A (an MIC of the fixed β-lactam antibiotic in the presence of >32 μg/mL of a β-lactamase inhibitor) | B (the MIC in the presence of between 8 and 32 μg/mL of a β-lactamase inhibitor) | C (the MIC in the presence of <4 μg/mL of a β-lactamase inhibitor) |  |  |  | 
N=C(N)NCCN1CCN(CC(=O)N[C@H]2Cc3cccc(C(=O)O)c3OB2O)C(=O)C1 [Example 38, 3-{2-[4-(2-Guanidino-ethyl)-2-oxo-piperazin-1-yl]-acetylamino}-2-hydroxy-3,4-dihydro-2H-benzo[e][1,2]oxaborinine-8-carboxylic acid] |  |  | 100 to 1000 | 1000 to 10000 | 1000 to 10000 | < 100 | C (the MIC in the presence of <4 μg/mL of a β-lactamase inhibitor) | C (the MIC in the presence of <4 μg/mL of a β-lactamase inhibitor) | C (the MIC in the presence of <4 μg/mL of a β-lactamase inhibitor) | B (the MIC in the presence of between 8 and 32 μg/mL of a β-lactamase inhibitor) | A (an MIC of the fixed β-lactam antibiotic in the presence of >32 μg/mL of a β-lactamase inhibitor) |  |  |  |  | 
NCCCN1CCC(CC(=O)N[C@H]2Cc3cccc(C(=O)O)c3OB2O)CC1 [Example 42, 3-{2-[1-(3-Amino-propyl)-piperidin-4-yl]-acetylamino}-2-hydroxy-3,4-dihydro-2H-benzo[e][1,2]oxaborinine-8-carboxylic acid] |  |  | < 100 | < 100 | 1000 to 10000 | < 100 | C (the MIC in the presence of <4 μg/mL of a β-lactamase inhibitor) | C (the MIC in the presence of <4 μg/mL of a β-lactamase inhibitor) | C (the MIC in the presence of <4 μg/mL of a β-lactamase inhibitor) | B (the MIC in the presence of between 8 and 32 μg/mL of a β-lactamase inhibitor) | A (an MIC of the fixed β-lactam antibiotic in the presence of >32 μg/mL of a β-lactamase inhibitor) | C (the MIC in the presence of <4 μg/mL of a β-lactamase inhibitor) |  |  |  | 
C[C@@H](O)[C@H]1C(=O)N2C(C(=O)O)=C(S[C@@H]3CN[C@H](C(=O)N(C)C)C3)[C@H](C)[C@H]12 [Meropenem, reference compound] |  |  |  |  |  |  |  |  |  |  |  |  | > 128 | 16 | 64 | 
CCN1CCN(C(=O)N[C@@H](C(=O)N[C@@H]2C(=O)N3[C@@H]2SC(C)(C)[C@@H]3C(=O)O)c2ccccc2)C(=O)C1=O [Piperacillin, reference compound] |  |  |  |  |  |  |  |  |  |  |  |  |  |  |  | 64
